Assay results reported in PMC12716025, “Plectranthus‐derived Abietanes as Protein Kinase C‐δ Activators: In Silico Design, Human Serum Albumin Interaction, and Stability Evaluation” (Chemistry & Biodiversity, 2025).

Target: T1, Human serum albumin (HSA) (Homo sapiens, UniProt P02768)
T1 construct: gene ALB; Essentially fatty acid-free HSA, type A1887 (Sigma-Aldrich)
Experiment: intrinsic tryptophan fluorescence quenching (binding constant Ka, […]°C), synchronous fluorescence, thermal shift (Tm +[…]°C)

T1 sequence (P02768 25-609): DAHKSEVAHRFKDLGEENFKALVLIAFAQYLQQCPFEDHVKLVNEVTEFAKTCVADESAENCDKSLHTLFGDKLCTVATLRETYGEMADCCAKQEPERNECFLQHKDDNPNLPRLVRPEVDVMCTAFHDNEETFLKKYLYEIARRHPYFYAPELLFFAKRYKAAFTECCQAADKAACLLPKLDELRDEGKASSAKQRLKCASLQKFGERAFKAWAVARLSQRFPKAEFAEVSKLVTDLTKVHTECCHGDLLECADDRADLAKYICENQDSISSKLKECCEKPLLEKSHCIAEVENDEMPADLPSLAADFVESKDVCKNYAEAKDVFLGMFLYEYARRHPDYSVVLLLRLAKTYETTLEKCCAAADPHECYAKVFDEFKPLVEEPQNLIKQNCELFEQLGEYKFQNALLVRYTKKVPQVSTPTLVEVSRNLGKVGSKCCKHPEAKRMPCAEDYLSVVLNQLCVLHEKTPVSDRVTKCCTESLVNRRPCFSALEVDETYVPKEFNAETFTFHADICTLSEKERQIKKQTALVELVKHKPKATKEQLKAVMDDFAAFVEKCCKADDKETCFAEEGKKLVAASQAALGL

CC(=O)O[C@H]1C2=C(C(=O)C(O)=C(C(C)C)C2=O)[C@@]2(C)CCCC(C)(C)[C@@H]2[C@@H]1O [compound 1, 7α-acetoxy-6β-hydroxyroyleanone]
Kd: 15.4 µM
